# Test results published in PubChem BioAssay (NCI).
#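 Cultured in 96-well plates, cells were exposed to test compound for 48 hours across five concentrations. GI50 marks 50% less growth. The concentration for full growth arrest is given as TGI.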
# What was measured:
# Experiment in all cases: growth of human tumour cells (NCI), 48 h
# SK-MEL-5 melanoma = test system: SK-MEL-5 melanoma
# NCI/ADR-RES ovarian = test system: NCI/ADR-RES ovarian
# U251 CNS = test system: U251 CNS
# A498 renal = test system: A498 renal
# SNB-75 CNS = test system: SNB-75 CNS
# NCI-H460 lung = test system: NCI-H460 lung
# SK-MEL-28 melanoma = test system: SK-MEL-28 melanoma
# NCI-H522 lung = test system: NCI-H522 lung
Compound,GI50 (SK-MEL-5 melanoma) [µM],TGI (SK-MEL-5 melanoma) [µM],GI50 (NCI/ADR-RES ovarian) [µM],TGI (NCI/ADR-RES ovarian) [µM],GI50 (U251 CNS) [µM],TGI (U251 CNS) [µM],GI50 (A498 renal) [µM],TGI (A498 renal) [µM],GI50 (SNB-75 CNS) [µM],TGI (SNB-75 CNS) [µM],GI50 (NCI-H460 lung) [µM],TGI (NCI-H460 lung) [µM],GI50 (SK-MEL-28 melanoma) [µM],TGI (SK-MEL-28 melanoma) [µM],GI50 (NCI-H522 lung) [µM],TGI (NCI-H522 lung) [µM]
CC([C@H]1CCC2C3CCC4C[C@@H](NC=O)CC[C@]4(C)C3CC[C@@]21C)N(C)C (stereo not given in full),1.37,2.74,6.02,21.4,2.96,13.8,2.51,11.9,4.68,18.2,1.89,4.04,1.65,3.08,4.53,17.6
CC1(C)OC[C@@H]([C@@]2(CO[Si](C)(C)C(C)(C)C)CC=CC(=O)O2)O1,19,36.3,21.7,49.2,31.2,> 100,18.6,36.1,–,–,26.6,> 100,21.8,48.9,30.2,86.2
CC(C)(C)C(=O)Nc1ccccc1I(=O)=O,> 100,> 100,> 100,> 100,> 100,> 100,> 100,> 100,> 100,> 100,> 100,> 100,> 100,> 100,> 100,> 100
COc1cc(Cl)cc(-c2nn(C(=O)NCCN3CCN(C)CC3)cc2-c2ccncc2)c1,3.76,16.7,19.8,88.5,15.1,> 100,4.67,24.7,1.75,9.65,21,60.4,5.31,40.6,20.3,53.6
O=C(Nc1ccc(-n2cc(-c3ccncc3)c(-c3ccc(Cl)c(O)c3)n2)cc1)Nc1cc(C(F)(F)F)cc(C(F)(F)F)c1,1.67,3.41,2.22,5.6,1.51,2.98,1.56,5.39,1.18,3.88,1.92,3.85,2.01,4.34,–,–
COC(=O)NC/C=C\c1nc(CC/C=C\C(=O)OC2CC3CC(=O)O[C@H](/C=C/CC(C)C)C[C@H]4CCC(C)C(C[C@H](OC)CC(C2)O3)O4)co1 (stereo not given in full),< 0.01,19.3,59,> 100,1.42,> 100,13.6,57.1,32.5,> 100,< 0.01,63.5,12.1,> 100,–,–
COc1ccc2c(c1)nc(N)c1c3cc(OC)c(OC)cc3cn21,0.0645,0.987,–,–,0.118,14.6,0.0135,0.592,–,22.6,0.0606,11,–,19.9,< 0.01,–
N#CC1=C(N)N=C(N2CCCCC2)C(C#N)C12Nc1ccccc1S2 (stereo not given),19.6,42.3,20,68.6,17,> 100,–,–,84.1,> 100,27,> 100,26.6,> 100,22.2,56.8
